Reference: patent US20030211078A1, “Pseudo-antibody constructs” (priority 2001, published 2003)

How the values were obtained:
[1] = in vivo pharmacokinetic analysis, circulating half-life / clearance in mice (FIG. 3); conditions: equimolar doses
Description: FIG. 3 depicts a comparison of in vivo circulating half-life, in mice, of two pseudo-antibodies, 7E3 Fab′ (PEG3.4K-DSPE)2 and 7E3 Fab′ (PEG5K)2.
For in vivo pharmacokinetic analysis, c7E3 Fab′ (PEG3.4k-DSPE)2 and c7E3 Fab′ (PEG5k) were prepared, and given to mice in equimolar doses. The results are depicted in FIG. 3.

[2] = system: platelet aggregation (GPIIb/IIIa receptors on platelets); assay: inhibition of platelet aggregation, in vitro activity (FIG. 1, FIG. 2); assay type: cell-based; conditions: for binding activity / in vitro activity (inhibition of platelet aggregation) compared with unmodified antibody fragment ReoPro: FIG. 2; for in vitro activity (inhibition of platelet aggregation) compared with unmodified antibody fragment ReoPro: versus ReoPro; for in vitro activity (inhibition of platelet aggregation) compared with unmodified 7E3 Fab′: FIG. 1, versus unmodified Fab
Excerpt: FIG. 1 depicts a comparison of the inhibition of platelet aggregation by two pseudo-antibodies (7E3 Fab′ (PEG3.4K-DSPE)2 and 7E3 Fab′ (PEG3.4K-PAL)2) and one unmodified antibody fragment (7E3 Fab).
FIG. 2 depicts a comparison of the inhibition of platelet aggregation by two pseudo-antibodies (7E3 Fab′ (PEG5K)2 and 7E3 Fab′ (PEG10K)2) and one unmodified antibody fragment (ReoPro®).
The organic moieties portions of these constructs may also be dimerized, such that n=2. For example, the antibody fragment 7E3 Fab′ was used to construct the pseudo-antibody 7E3 Fab′ (PEG3.4k-DSPE)2 and the pseudo-antibody 7E3 Fab′ (PEG3.4.k-PAL)2 and the in vitro activities were compared with unmodified 7E3 Fab′.
Additionally, 7E3 Fab′ was used to construct the pseudo-antibodies 7E3 Fab′ (PEG5k)2 and 7E3 Fab′ (PEG10k)2 and the in vitro activites were compared with the unmodified antibody fragment ReoPro®.

MMP 9 = MMP 9 (Homo sapiens, UniProt P14780); conditions: cited from earlier work
Sequence of MMP 9 (P14780 94-707): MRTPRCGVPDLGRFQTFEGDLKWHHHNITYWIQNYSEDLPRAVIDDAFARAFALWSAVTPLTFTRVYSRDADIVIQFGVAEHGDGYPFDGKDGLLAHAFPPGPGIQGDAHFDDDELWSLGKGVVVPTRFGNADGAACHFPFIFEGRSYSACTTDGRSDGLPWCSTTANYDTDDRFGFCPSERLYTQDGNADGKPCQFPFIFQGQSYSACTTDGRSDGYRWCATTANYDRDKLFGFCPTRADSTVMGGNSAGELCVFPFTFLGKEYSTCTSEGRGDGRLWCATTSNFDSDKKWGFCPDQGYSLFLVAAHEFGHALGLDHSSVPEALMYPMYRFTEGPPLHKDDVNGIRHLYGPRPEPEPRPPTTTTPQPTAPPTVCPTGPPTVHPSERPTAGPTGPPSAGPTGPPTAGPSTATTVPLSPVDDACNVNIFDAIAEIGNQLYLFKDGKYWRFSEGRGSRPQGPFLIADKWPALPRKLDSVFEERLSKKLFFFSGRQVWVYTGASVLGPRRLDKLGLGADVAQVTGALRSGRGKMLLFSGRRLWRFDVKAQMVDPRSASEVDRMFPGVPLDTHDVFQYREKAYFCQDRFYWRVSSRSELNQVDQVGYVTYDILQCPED

MMP 3 = MMP 3 (Homo sapiens, UniProt P08254); conditions: cited from earlier work
Sequence of MMP 3 (P08254 100-477): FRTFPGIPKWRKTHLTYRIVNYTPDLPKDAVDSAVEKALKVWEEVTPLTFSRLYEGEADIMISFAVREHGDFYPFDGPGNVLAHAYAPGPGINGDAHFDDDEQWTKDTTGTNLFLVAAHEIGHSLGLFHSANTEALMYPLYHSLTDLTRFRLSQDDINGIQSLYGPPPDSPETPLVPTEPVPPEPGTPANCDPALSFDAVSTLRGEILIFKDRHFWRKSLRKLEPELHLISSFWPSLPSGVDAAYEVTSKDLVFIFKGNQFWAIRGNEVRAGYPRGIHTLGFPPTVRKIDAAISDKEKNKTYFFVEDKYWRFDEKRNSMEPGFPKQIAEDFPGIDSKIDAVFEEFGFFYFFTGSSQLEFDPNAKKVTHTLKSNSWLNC

MMP 2 = molecular target: T1, MMP 2 (Homo sapiens, UniProt P08253); conditions: cited from earlier work
T1 sequence (P08253 110-660): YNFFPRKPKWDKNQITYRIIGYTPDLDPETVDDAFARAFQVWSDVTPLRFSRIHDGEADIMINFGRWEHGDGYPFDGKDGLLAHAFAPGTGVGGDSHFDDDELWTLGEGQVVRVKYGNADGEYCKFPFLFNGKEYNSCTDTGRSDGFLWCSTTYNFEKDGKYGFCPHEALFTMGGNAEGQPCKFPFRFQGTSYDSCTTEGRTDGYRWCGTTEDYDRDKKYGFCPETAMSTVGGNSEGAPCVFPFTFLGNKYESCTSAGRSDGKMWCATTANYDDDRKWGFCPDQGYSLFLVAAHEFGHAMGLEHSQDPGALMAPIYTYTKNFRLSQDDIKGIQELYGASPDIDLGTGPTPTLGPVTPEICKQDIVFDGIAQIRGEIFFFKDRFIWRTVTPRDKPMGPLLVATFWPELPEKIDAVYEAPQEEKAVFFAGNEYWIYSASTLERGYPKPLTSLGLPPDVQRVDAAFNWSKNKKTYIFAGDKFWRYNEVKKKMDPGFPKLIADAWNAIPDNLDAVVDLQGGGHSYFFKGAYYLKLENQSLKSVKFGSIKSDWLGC

[3] = cited from earlier work
adjuvant arthritic rat = conditions: bone mineral density, MRI, micro-CT, histology; cited from earlier work

Molecule: c7E3 Fab′ (PEG5k): pseudo-antibody of c7E3 Fab′ with PEG5k, given to mice; probably the same as 7E3 Fab′ (PEG5K)2 of FIG. 3
- rate of clearance [1]: cleared faster

Molecule: 7E3 Fab′ (PEG10k)2: pseudo-antibody: 7E3 Fab′ fragment with two PEG10k chains
- binding activity [2]: binding activity was clearly retained
- in vitro activity (inhibition of platelet aggregation) compared with unmodified antibody fragment ReoPro [2]: somewhat lower in vitro activity than the unmodified antibody fragment

Molecule: O=C(C[C@H](CSc1ccccc1)C(=O)O)c1ccc(-c2ccc(Cl)cc2)cc1 [BAY12-9566]
- inhibitory activity against MMP 9 (MMP 9): nM inhibitory activity
- inhibitory activity against MMP 3 (MMP 3): nM inhibitory activity
- inhibitory activity against MMP 2 (MMP 2): nM inhibitory activity

Molecule: CCCCS(=O)(=O)N[C@@H](Cc1ccc(OCCCCC2CCNCC2)cc1)C(=O)O [Tirofiban]
- in vivo circulatory half-life [3]: approximately two

Molecule: 7E3 Fab′ (PEG5k)2: pseudo-antibody: 7E3 Fab′ fragment with two PEG5k chains
- binding activity [2]: binding activity was clearly retained
- in vitro activity (inhibition of platelet aggregation) compared with unmodified antibody fragment ReoPro [2]: somewhat lower in vitro activity than the unmodified antibody fragment

Molecule: COc1nccc(-c2c(-c3ccc(F)cc3)ncn2C2CCNCC2)n1 [SB 242235]
- activity in the adjuvant arthritic rat (adjuvant arthritic rat): inhibits inflammation and has significant joint-protective effects

Molecule: 7E3 Fab′ (PEG3.4k-DSPE)2: pseudo-antibody: 7E3 Fab′ fragment with two PEG3.4k chains each ending in diesteroylphosphatidyl-ethanolamine (DSPE)
- in vitro activity (inhibition of platelet aggregation) compared with unmodified 7E3 Fab′ [2]: similar
- rate of clearance [1]: slower rate of clearance

B1: 7E3 Fab′ (PEG3.4.k-PAL)2: pseudo-antibody: 7E3 Fab′ fragment with two PEG3.4k chains each ending in palmatoyl (PAL) (conjugate, chains of the INN, looked up)
VH: EVQLQQSGTVLARPGASVKMSCEASGYTFTNYWMHWVKQRPGQGLEWIGAIYPGNSDTSYIQKFKGKAKLTAVTSTTSVYMELSSLTNEDSAVYYCTLYDGYYVFAYWGQGTLVTVSA
VL: EIVLTQSPVTLSVTPGDSVSLSCRASRDISNNLHWFQQTSHESPRLLIKYASQSMSGIPSRFSGSGSGTDFTLSINSVETEDFGMYFCQQTNSWPYTFGGGTKLEIK
modifications: Fab' two PEG3.4k-palmitoyl chains
- in vitro activity (inhibition of platelet aggregation) compared with unmodified 7E3 Fab′ [2]: similar
